# Experimental data published in patent US20120121656A1, “METHODS AND COMPOSITIONS FOR PROTECTING AGAINST NEUROTOXICITY OF A NEUROTOXIC AGENT, AND IMPROVING MOTOR COORDINATION ASSOCIATED WITH A NEURODEGENERATIVE CONDITION OR DISEASE” (Revalesio Corporation, priority 2010, published 2012).
# How the values were obtained:
# [1] = Body weight of rats in the MBP EAE model; format: in vivo, Lewis rats; details: Group 2F, 1 mg/kg IP once daily from study day 0
# Source text: (§1) Body Weights. Body weight loss can be the first sign of disease initiation, while a sudden marked weight gain tends to accompany remission of EAE symptoms. Therefore, determination of individual body weights of animals was made shortly before EAE induction on study day 0 (study commencement) and thereafter on a daily basis throughout the entire 21-day observation period.
# as §1, with “This working EXAMPLE discloses the weight change of rats subjected to the experiment described in Example 7.” for “Body Weights.”, “and” for “and thereafter”, “the” for “the entire”
# MMP-9 = MMP-9 (Homo sapiens, UniProt P14780); details: cited from earlier work
# MMP-2 = molecular target: T1, MMP-2 (Homo sapiens, UniProt P08253); details: cited from earlier work
# T1 sequence (P08253 110-660): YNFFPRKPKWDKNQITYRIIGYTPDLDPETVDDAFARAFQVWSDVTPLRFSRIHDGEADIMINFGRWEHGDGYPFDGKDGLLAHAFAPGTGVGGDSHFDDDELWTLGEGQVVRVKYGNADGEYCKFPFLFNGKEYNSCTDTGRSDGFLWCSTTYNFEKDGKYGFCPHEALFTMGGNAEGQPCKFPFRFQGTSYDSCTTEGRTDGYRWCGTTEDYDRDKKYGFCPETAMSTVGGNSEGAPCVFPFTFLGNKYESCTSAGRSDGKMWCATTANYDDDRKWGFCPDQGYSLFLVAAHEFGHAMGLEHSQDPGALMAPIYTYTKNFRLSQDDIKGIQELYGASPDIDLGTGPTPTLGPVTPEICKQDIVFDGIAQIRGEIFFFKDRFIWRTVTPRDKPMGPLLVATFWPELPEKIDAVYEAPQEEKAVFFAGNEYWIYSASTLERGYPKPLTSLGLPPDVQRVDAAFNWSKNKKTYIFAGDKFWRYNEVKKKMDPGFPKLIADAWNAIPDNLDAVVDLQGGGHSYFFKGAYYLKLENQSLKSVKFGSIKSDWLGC
# primary progressive MS = details: 943 patients with primary progressive MS (Wolinsky et al. 2007); cited from earlier work
# MS = details: in vivo; cited from earlier work
# Sequence of MMP-9 (P14780 94-707, species assumed): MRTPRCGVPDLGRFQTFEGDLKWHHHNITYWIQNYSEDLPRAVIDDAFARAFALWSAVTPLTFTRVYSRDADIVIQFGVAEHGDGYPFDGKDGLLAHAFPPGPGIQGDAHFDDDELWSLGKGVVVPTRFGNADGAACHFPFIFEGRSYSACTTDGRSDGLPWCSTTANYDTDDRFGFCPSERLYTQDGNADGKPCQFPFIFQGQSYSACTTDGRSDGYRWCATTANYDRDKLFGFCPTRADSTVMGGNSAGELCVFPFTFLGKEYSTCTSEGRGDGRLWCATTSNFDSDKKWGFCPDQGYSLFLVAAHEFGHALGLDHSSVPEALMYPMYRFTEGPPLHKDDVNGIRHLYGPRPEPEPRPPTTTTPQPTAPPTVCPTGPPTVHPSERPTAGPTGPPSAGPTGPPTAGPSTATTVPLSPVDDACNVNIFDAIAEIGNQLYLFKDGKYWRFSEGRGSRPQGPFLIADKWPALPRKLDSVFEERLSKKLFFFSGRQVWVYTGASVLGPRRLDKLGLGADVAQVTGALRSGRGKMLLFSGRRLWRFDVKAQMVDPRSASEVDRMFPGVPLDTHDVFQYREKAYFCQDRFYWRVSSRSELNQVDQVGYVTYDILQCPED
Molecule,binding and inhibition of MMP-9 (MMP-9),binding and inhibition of MMP-2 (MMP-2),other results
C[C@@H]1C[C@H]2[C@@H]3CCC4=CC(=O)C=C[C@]4(C)[C@@]3(F)[C@@H](O)C[C@]2(C)[C@@]1(O)C(=O)CO [Dexamethasone],–,–,mean body weight loss during the study [1]: 10%; mean body weight lost at study termination [1]: 2%
"O=S(=O)(CCC(S)CS)c1ccc(Oc2ccccc2)cc1 (centres unmarked) [compound 1, 4-(4-phenoxyphenylsulfonyl)butane-1,2-dithiol]",bind selectively and inhibit potently,bind selectively and inhibit potently,–
"O=S(=O)(CCCC(S)CS)c1ccc(Oc2ccccc2)cc1 (centres unmarked) [compound 2, 5-(4-phenoxyphenylsulfonyl)pentane-1,2-dithiol]",bind selectively and inhibit potently,bind selectively and inhibit potently,–
glatiramer acetate,–,–,progression of disability and the disease (primary progressive MS): failed to halt the progression of disability and the disease
interferon-β,–,–,effectiveness in reducing the rate of MS episodes (MS): 18-38%
